Legend:
MDA-MB-231 cells [1] = test: Comet assay (DNA damage); format: cell-based, human; conditions: 0.41, 0.82, 1.64 μM, 72 h, MDA-MB-231, neutral comet assay
Protocol: All DNA damage sustained in this assay was measured via Comet Assay Kit (Keygen, Nanjing, China) according to the manufacturer’s instructions. 7Cc was added to MDA-MB-231 cells at predetermined concentrations (0, 0.41, 0.82, 1.64 μM) for 72 h. These cells were then collected and fixed on CometSlide at 4 °C for 15 min. After that, the cells were set under lysis solution at 4 °C for 90 min and these slides were electrophoresed for 20 min, fixed in ethanol for 5 min, and then stained with Vista Green DNA Dye. The final results were acquired by a fluorescence microscope.

[2] = system: human lung cancer cell line A549; test: CCK-8 antiproliferative assay, A549; format: cell-based; conditions: Homo sapiens, A549; CCK-8, 48 h, mean ± SD of three experiments
Protocol: (§1) The antiproliferative activities of target compounds were examined by CCK-8 assay in three cancer cells (human lung cancer cell line A549, human mammary gland tumour cell line MCF-7 and human TNBC cell line MDA-MB-231) and one normal cell (human normal breast cell line MCF10A). All cell lines were sourced from KeyGEN Biotech, […], China, and a standard DMEM medium was applied to all cell cultures then subjected to 24 h incubation at 37 °C in a humidified environment with 5% CO2. After that logarithmic growing cells were plated on 96-well plates with 8,000 cells per well in a […] medium for 24 h incubation at 37 °C with 5% CO2. The DMEM medium with bovine serum was removed from each well. Then, prerequisite target compounds and positive controls were added to different cell lines in a predetermined concentration regiment for 48 h culture.

[3] = Griess assay, NO-releasing capacity; conditions: 10^−4 mol/l compound, L-cysteine, 37 °C
Protocol: The NO-releasing capacity of each target compound was determined by the colorimetric method under the instructions of the manufacturer. Preparation of standard curves of 0, 1.56, 3.13, 6.25, 12.5, 25, 50 and 100 μmol/L nitrite nitrogen series standard solution was prepared. 50 μL to 96-well plate was added respectively and then mixed with 50 μL Griess I and Griess II; the absorption value was measured at 540 nm wavelength. A standard curve was drawn from the obtained data. Compounds were formulated into 10^−4 mol/l with PBS (pH = 7.4) and pharmaceutical DMSO. The newly formulated L-cysteine solution 100 μL ([…]) was added and incubated at 37 °C for 15, 30, 45, 60, 90, 120, 150 and180 min, respectively. Griess I and II recovered to room temperature, 50 μL of compounds 7A–E(a–c) were added respectively into the 96-well plate, and then 50 μL of Griess I and 50 μL of Griess II were added in sequence, with the absorbance tested at 540 nm. The amount of NO released was then calculated according to the standard curve.

[4] = system: human normal breast cell line MCF10A; test: CCK-8 assay, normal cells MCF10A; format: cell-based; conditions: MCF-10A, CCK-8, 48 h, mean ± SD of three experiments
Protocol: as §1

MDA-MB-231 cells [5] = test: Cell apoptosis assay (annexin V-FITC/PI, flow cytometry); format: cell-based, human; conditions: 72 h, negative control 5.98%
Protocol: This assay was performed on 6-well plates with 200,000 MDA-MB-231 cells per well and incubated for 24 h at 37 °C with 5% CO2, then the medium from each well was removed and treated by 7Cc in different concentrations (0, 0.41, 0.82, 1.64 μM) for additional 72 h incubation. Subsequently, 500 μL of binding buffer was applied to suspend and collect compound treated cells. Then, 5 μL of both annexin V-fluorescein isothiocyanate (Annexin V-FITC) and propidium iodide (PI) was applied to the mixture and this reaction was placed under total dark at room temperature for 10 min. Cell apoptosis was examined by flow cytometry.

[6] = system: human mammary gland tumour cell line MCF-7; test: CCK-8 antiproliferative assay, MCF-7; format: cell-based
Protocol: as §1

MDA-MB-231 cells [7] = test: Wound healing assay; format: cell-based, human; conditions: 0.41, 0.82, 1.64 μM, 24 h
Protocol: In this assay, 6-well plates with 200,000 cells per well were used for the culture of MDA-MB-231 cells at 37 °C for 24 h and the medium of each well was removed. Then, 7Cc at predetermined concentrations (0, 0.41, 0.82, 1.64 μM) was added to the cell culture for incubation. After that, sterile pipette tips were utilised to scratch cell culture in 6-well plates in an even fashion, and detached cells were washed away by PBS with culture medium replaced anew afterward. After 24 h of additional incubation, cell cultures were photographed and migration distance examined accurately.

MDA-MB-231 cells [8] = test: Transwell assay; format: cell-based, human; conditions: 0.41, 0.82, 1.64 μM, 24 h, concentration-dependent
Protocol: Then, cells attached to the upper surface of the membrane were removed while migrated or invaded cells of the lower membrane surface were added 0.1% crystal violet staining for 30 min. Then, migrated or invaded cells of the lower chamber were photographed and counted.

MDA-MB-231 cells [9] = test: Cell cycle analysis (PI staining, flow cytometry); format: cell-based, human; conditions: 72 h; for share of S phase in cell cycle: control 45.39%
Protocol: This assay was conducted on 6-well plates with 200,000 MDA-MB-231 cells per well and incubated for 24 h at 37 °C with 5% CO2, then the medium from each well was removed and treated by 7Cc in different concentrations (0, 0.41, 0.82, 1.64 μM) for additional 72 h incubation. The desired cell suspension was acquired after attached cells were digested then collected and washed in terms. Cell suspension was then subjected to fixation via 70% ethanol and washed with phosphate-buffered solution (PBS), incubated with 100 μL Rnase A, and placed on water bathed for half an hour at 37 °C. For the final step, 400 μL PI was applied to the mixture in a dark environment at 4 °C for 30 min. Then the distribution of DNA content was measured by flow cytometry (FACS Calibur Becton-Dickinson, Franklin Lake, NJ).

[10] = system: human TNBC cell line MDA-MB-231; test: CCK-8 antiproliferative assay, MDA-MB-231; format: cell-based
Protocol: as §1

MDA-MB-231 cells [11] = test: Adhesion assay; format: cell-based, human; conditions: 0.41, 0.82, 1.64 μM, 72 h, dose-dependent
Protocol: MDA-MB-231 cells were incubated in different plates and then treated with 7Cc in different concentrations (0, 0.41, 0.82, 1.64 μM) for 72 h. After that, the CAM ([…]) stain treated serum-free medium was applied and 96-well plates were seeded with 100 μL already prepared cell suspension at 2,000 cells per good concentration for an hour. Then, plates were washed by PBS, fixed via 3.7% formaldehyde, another PBS wash, and photographed by fluorescence microscope.

MDA-MB-231 cells [12] = test: Mitochondrial membrane potential assay (JC-1, flow cytometry); format: cell-based, human; conditions: 48 h, control 3.67%
Protocol: Briefly, MDA-MB-231 cells in logarithmic growth were placed in 6-well plates with 200,000 cells per well for 24 h before a medium remove and then incubated with 7Cc at predetermined concentrations (0, 0.41, 0.82, 1.64 μM) for 48 h. Cells were collected after and washed with PBS. JC-1 dye was added to cells for staining under total dark conditions according to the manufacturer's instructions (KGA601, KeyGEN Biotech, Nanjing, China). The percentage of cells with collapsed mitochondrial membrane potentials was detected by flow cytometry.

Question: For `COC1=CC2[C@H]3Cc4ccc(OC)c(OC(=O)c5ccccc5C(=O)OCCCCOc5no[n+]([O-])c5S(=O)(=O)c5ccccc5)c4[C@@]2(CCN3C)CC1=O` (stereo partly drawn) [7Cc, 4–(4-((2-((((4bs,9R)-3,7-Dimethoxy-11-methyl-6-oxo-6,8a,9,10-tetrahydro-5H-9,4b-(epiminoethano)phenanthren-4-yl)oxy)carbonyl)benzoyl)oxy)butoxy)-3-(phenylsulfonyl)-1,2,5-oxadiazole 2-oxide], which “DNA damage (double-strand DNA breaks, comet tail)” value (MDA-MB-231 cells [1]) is on record?
Answer: The value was “significant presence of endogenous DSBs was observed”.

Question: And the IC50 [2]?
Answer: Its IC50 is 1940 ± 50 nM.

Question: What about the “time at which top volume of NO released was reached” value [3] of the same compound?
Answer: Its value is 90 min.

Question: And the “NO release at 180 min” value ([3]; 180 min)?
Answer: The value was 39.27 µmol/L.

Question: And the IC50 [4]?
Answer: Its IC50 is 27.5 ± 2.34 µM.

Question: And the “apoptotic portions of cells (two quadrants from the right side)” value (“apoptotic portions of cells” below) (MDA-MB-231 cells [5]; 0.41 μM)?
Answer: The value was 16.66%.

Question: What about the “apoptotic portions of cells” value (MDA-MB-231 cells [5]; 0.82 μM) of the same compound?
Answer: Its value is 26.62%.

Question: And the “apoptotic portions of cells” value (MDA-MB-231 cells [5]; 1.64 μM)?
Answer: Its value is 53.28%.

Question: What about the IC50 ([6]; Homo sapiens, MCF7, 48 h, read-out: IC50 MCF-7) of the same compound?
Answer: Its IC50 is 1750 ± 150 nM.

Question: And the “SI MCF-7 (selectivity index)” value ([6]; SI = IC50(MCF-10A)/IC50(MCF-7))?
Answer: Its value is 15.73.

Question: And the “migration (wound closure)” value (MDA-MB-231 cells [7])?
Answer: Its value is “inhibited migration”.

Question: And the “invasion (cells permeated through transwell membrane)” value (MDA-MB-231 cells [8])?
Answer: Its value is “notably reduced the number of cells permeated through the membrane”.

Question: And the “share of S phase in cell cycle” value (MDA-MB-231 cells [9]; 0.41 μM)?
Answer: The value was 49.10%.

Question: What about the “share of S phase in cell cycle” value (MDA-MB-231 cells [9]; 0.82 μM) of the same compound?
Answer: The value was 57.27%.

Question: What about the “share of G2 phase in cell cycle” value (MDA-MB-231 cells [9]; 1.64 μM, control 10.09%) of the same compound?
Answer: The value was 5.76%.

Question: And the “share of G1 phase in cell cycle” value (MDA-MB-231 cells [9]; 1.64 μM, control 44.52%)?
Answer: The value was 30.09%.

Question: What about the “share of S phase in cell cycle” value (MDA-MB-231 cells [9]; 1.64 μM) of the same compound?
Answer: Its value is 64.15%.

Question: What about the IC50 ([10]; Homo sapiens, MDA-MB-231, 48 h, read-out: IC50 MDA-MB-231) of the same compound?
Answer: Its IC50 is 820 ± 20 nM.

Question: And the “SI MDA-MB-231 (selectivity index)” value ([10]; SI = IC50(MCF-10A)/IC50(MDA-MB-231))?
Answer: Its value is 33.57.

Question: What about the cellular adhesion (MDA-MB-231 cells [11]) of the same compound?
Answer: Its cellular adhesion is “clear prevention of TNBC cellular adhesion”.

Question: And the “percentage of cells with collapsed mitochondrial membrane potential (JC-1)” value (shortened to “percentage of cells”) (MDA-MB-231 cells [12]; 0.41 μM)?
Answer: The value was 16.40%.

Question: What about the “percentage of cells” value (MDA-MB-231 cells [12]; 0.82 μM) of the same compound?
Answer: Its value is 31.01%.

Question: What about the “percentage of cells” value (MDA-MB-231 cells [12]; 1.64 μM) of the same compound?
Answer: The value was 49.98%.
